Test results taken from patent publication US9834530B2, “3-furyl-2-cyano-2-acrylamide derivative, preparation method therefor, pharmaceutical composition and use thereof” (JENKEM TECHNOLOGY CO., LTD. (BEIJING), priority 2013, dated 2017).

Legend:
[1] = tested on: AD fruit flies (elav/Y; UAS-Aβ42/+; P35*H29.3); experiment: Pavlovian olfactory learning test in AD fruit flies (anti-senile dementia effect); assay type: in vivo; details: for PI (mean value), learning and memory index: AD flies (P35*H29.3) given drug, final concentration 100 μM, 50 μl, day 2 to day 8, immediate memory tested day 9, PI=0 no memory, PI=100 all remember; for anti-senile dementia effect (in words, from Table 1): AD flies, T test against AD flies without administration: P>0.05, P<0.05 or P<0.01; for anti-senile dementia effect compared with JKF-006, JKF-027 and JKF-011: transgenic AD fruit flies, comparison with compounds of WO2012/103282
Protocol: In all tests, w^1118 (isoCJ1) was used as a control gene system, referred to as the “2U”. Progeny fruit flies with disease carrying P35 and H29.3 were obtained by integration of fruit flies carrying elav-GAL4^c155 (referred to as P35) and fruit flies carrying Aβ42 (UAS-Aβ42; referred to as H29.3). The first generation of fruit flies obtained by hybridization was used for behavioral testing. Details as follows:
All the fruit flies were reared in an environment with a temperature of 24° C., relative humidity of 40% RH. On the first day, newborn male 2U*H29.3 fruit flies and male AD fruit flies were picked out and put into glass bottles (there were about 120 fruit flies in each bottle). During administration period, these fruit flies were placed in an environment with a temperature of 28° C., relative humidity of 42% RH. From the second day to the eighth day, the fruit flies were transferred into new glass bottles 4 hours later after administration. All the fruit flies were placed in an environment with a temperature of 28° C., relative humidity of 42% RH until 1 hour before Pavlovian olfactory learning test.
On the first day of eclosion dispensation of drugs was conducted, the second day administration was carried out. The respective initial amount of compounds JK-01A, JK-03A, JK-05A, JK-06A and JK-07A was 10 mg, and the final concentration was 100 μM. Each group had two glass bottles of flies which were administered 50 μl within seven days (from the second day to the eighth day). During administration period, since some fruit flies died naturally or for other causes, about 100 flies were remained in each bottle when Pavlovian olfactory test was conducted on the ninth day.
The fruit flies were placed on the automatic training device for training. In training, a group of about 100 flies first contacted with one kind of odor (octanol or methyl cyclohexanol) accompanied by electric shocks (an electric shock of 60 V for 3.5 s at 1.5-s intervals) for 60 s, rested at 45-s intervals, and then contacted with another kind of odor (methyl cyclohexanol or octanol) without electric shocks for 60 s. To test the “immediate memory” (also called “learning”), flies after the training were immediately sent to the T-maze choice point, and allowed to choose between two kinds of odor, the learning and memory index PI (Performance index) in every test was calculated according to the number of flies choosing each kind of odor. PI=0 represented 50:50, meaning that fruit flies could not remember the odor accompanied by electric shocks, PI=100 represented that 100% of the flies remembered the odor accompanied by electric shocks. Learning test was carried out in a darkroom with a temperature of 25° C., relative humidity of 70% RH. The fruit flies entered the darkroom to be familiar with the environment 1 hour before test.
The test data was analyzed and plotted by employing GraphPad Prism.
In the activity test, the olfactory short-term memory impairment tests of healthy flies with the same genetic background and without administration, AD flies without administration, AD flies administrated positive or negative control drugs and AD flies administrated test drugs were carried out at the same time, their learning and memory indexes were calculated, and the learning and memory index of AD flies administrated test drugs was compared with those of healthy flies with the same genetic background, AD flies, AD flies administrated positive or negative control drugs to evaluate the anti-senile dementia effect of test compounds. A relatively higher learning and memory index of AD flies administrated test drugs represented a stronger anti-senile dementia effect of test compounds. […]

[2] = tested on: ICR mice; experiment: Preliminary acute toxicity test; assay type: in vivo; details: given twice 3 hours apart, 14 days observation
Protocol: Method: in the acute toxicity test, ICR mice were used and divided into six groups for administration, with 10 mice in each group and half male and half female. […] The control group was administrated the same volume of vehicle. Observation was conducted for 14 consecutive days after administration.

Row | Compound | PI (mean value), learning and memory index [1] | anti-senile dementia effect (in words, from Table 1) [1] | Test result (acute toxicity) ([2]; 4000 mg/kg/d p.o.) | anti-senile dementia effect compared with JKF-006, JKF-027 and JKF-011 [1] | Test result (acute toxicity) ([2]; 6000 mg/kg/d p.o.) | Test result (acute toxicity) ([2]; 5000 mg/kg/d p.o.)
1 | CC(/C=C/C=C(\C)C(=O)O)=C\C=C\C=C(C)\C=C\C=C(/C)C(=O)O [Crocetin, reference compound] | 40 | equivalent anti-senile dementia effects |  |  |  | 
2 | Cc1nc(Nc2ncc(C(=O)Nc3c(C)cccc3Cl)s2)cc(N2CCN(CCO)CC2)n1 [Dasatinib, reference compound] | 56 |  |  |  |  | 
3 | C#Cc1cccc(Nc2ncnc3cc(OCCOC)c(OCCOC)cc23)c1 [Erlotinib, reference compound] | 48 | had anti-senile dementia effects |  |  |  | 
4 | N#C/C(=C/c1ccc(CO)o1)C(=O)Nc1ccc(F)cc1 [JK-01A, 2-cyano-N-(4-fluorophenyl)-3-(5-hydroxymethyl-2-furyl)-2-acrylamide] | 65 | significant anti-senile dementia effects | No death, | more significant anti-senile dementia effects |  | 
5 | N#C/C(=C\c1ccc(CO)o1)C(=O)NCCc1c[nH]c2ccccc12 [JK-03A, 2-cyano-N-[2-(1H-indol-3-yl)ethyl]-3-(5-hydroxymethyl-2-furyl)-2-acrylamide] | 56 | significant anti-senile dementia effects |  | more significant anti-senile dementia effects | No death, | 
6 | N#C/C(=C\c1ccc(NCCOCCO)o1)C(=O)NCCc1c[nH]c2ccccc12 [JK-05A, 2-cyano-N-[2-(1H-3-indolyl)ethyl]-3-{5-[2-(2-hydroxyethoxy)ethylamino]-2-furyl}-2-acrylamide] | 40 | equivalent anti-senile dementia effects |  |  |  | No death,
7 | COCCOCCOCc1ccc(/C=C(\C#N)C(=O)Nc2ccc(F)cc2)o1 [JK-06A, 2-cyano-N-(4-fluorophenyl)-3-[5-(2,5,8-trioxa-nonyl-1-yl)furan-2-yl]-2-acrylamide] | 67 | significant anti-senile dementia effects |  | more significant anti-senile dementia effects | No death, | 
8 | N#CC(=Cc1ccc(COCCOCCOCCO)o1)C(=O)NCCc1c[nH]c2ccccc12 [JK-07A, 2-cyano-N-[2-(1H-3-indolyl)ethyl]-3-[5-(1,4,7,10-tetraoxa-undecane-11-yl)furan-2-yl]-2-acrylamide] | 58 | significant anti-senile dementia effects | No death, | more significant anti-senile dementia effects |  | 
9 | N#C/C(=C\c1ccc(-c2cc(C(=O)O)ccc2Cl)o1)C(=O)Nc1ccc(F)cc1 [JKF-006, reference compound] | 37 | equivalent anti-senile dementia effects |  |  |  | 
10 | N#C/C(=C\c1ccc(N2CCOCC2)o1)C(=O)NCCc1c[nH]c2ccccc12 [JKF-027, reference compound] | 54 | had anti-senile dementia effects |  |  |  | 
